Laboratory results as given in patent US8592564B2, “Immunoassays for lamotrigine” (Seradyn, Inc., priority 2004, dated 2013).

Tested on: anti-lamotrigine antibody
Test: Cross-reactivity of polyclonal antibody with lamotrigine metabolites
Assay type: binding
Settings: 500 μg/mL spiked into human serum
Description: A polyclonal antisera is obtained and an assay is performed in order to determine the amount of cross-reactivity of the polyclonal antibody with lamotrigine and lamotrigine metabolites. A known amount of lamotrigine is used to react with an anti-lamotrigine antibody prepared in accordance with the present invention. The known concentration of lamotrigine is used to calculate the amount of cross-reactivity between the antibody preparation and the metabolites as follows: N-methyl (29); N-oxide (30); and N-2 gluronide (31). The percent of cross-reactivity equals 100 times the observed concentration of lamotrigine in μg/mL, which is then divided by the concentration of added metabolites in μg/mL. No cross-reactivity is observed in specimens containing those metabolites. High concentrations of these compounds are spiked into human serum and tested as samples. The metabolites are assayed and compared to control serum (no lamotrigine). Cross reactivity is calculated using the following equation: […]
Also, the cross-reactivity of N-2 oxide at 500 μg/mL is less then 3%.

Row | SMILES | cross-reactivity
1 | C[n+]1nc(-c2cccc(Cl)c2Cl)c(N)nc1N [N-2 methyl] | do not have any cross-reactivity
2 | Nc1nc(N)[n+]([O-])nc1-c1cccc(Cl)c1Cl [N-2 oxide] | < 3%
